Results from patent US12180187B2, “1-phenyl-5-azinylpyrazolyl-3-oxyalkyl acids and their use for controlling unwanted plant growth” (BAYER AKTIENGESELLSCHAFT, priority 2019, dated 2024).

How the values were obtained:
DIGSA [1] = experiment: Pre-emergence action against DIGSA, 1280 g/ha; format: in vivo, Digitaria sanguinalis; conditions: visual scoring after about 3 weeks vs untreated controls, 100% = plants have died, 0% = like control plants
How it was run: (§1)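 Sandy loam pots, seeds covered with soil; aqueous WP/EC spray on covering soil, 0.5% additive, 600 L/ha. Greenhouse growth, good conditions. Readout: visual % activity at ~3 weeks (0% = like control, 100% = dead).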

ECHCG [2] = experiment: Pre-emergence action against ECHCG, 1280 g/ha; format: in vivo, Echinochloa crus-galli; conditions: visual scoring after about 3 weeks vs untreated controls, 100% = plants have died, 0% = like control plants
How it was run: as §1

LOLRI [3] = experiment: Pre-emergence action against LOLRI, 1280 g/ha; format: in vivo, Lolium rigidum; conditions: visual scoring after about 3 weeks vs untreated controls, 100% = plants have died, 0% = like control plants
How it was run: as §1

POAAN [4] = experiment: Pre-emergence action against POAAN, 1280 g/ha; format: in vivo, Poa annua; conditions: visual scoring after about 3 weeks vs untreated controls, 100% = plants have died, 0% = like control plants
How it was run: as §1

SETVI [5] = experiment: Pre-emergence action against SETVI, 1280 g/ha; format: in vivo, Setaria viridis; conditions: visual scoring after about 3 weeks vs untreated controls, 100% = plants have died, 0% = like control plants
How it was run: as §1

AMARE [6] = experiment: Pre-emergence action against AMARE, 1280 g/ha; format: in vivo, Amaranthus retroflexus; conditions: scored visually after about 3 weeks vs untreated controls (100% = plants have died)
How it was run: as §1

MATIN [7] = experiment: Pre-emergence action against MATIN, 1280 g/ha; format: in vivo, Tripleurospermum inodorum (Matricaria inodora); conditions: scored visually after about 3 weeks vs untreated controls (100% = plants have died)
How it was run: as §1

STEME [8] = experiment: Pre-emergence action against STEME, 1280 g/ha; format: in vivo, Stellaria media; conditions: scored visually after about 3 weeks vs untreated controls (100% = plants have died)
How it was run: as §1

VERPE [9] = experiment: Pre-emergence action against VERPE, 1280 g/ha; format: in vivo, Veronica persica; conditions: scored visually after about 3 weeks vs untreated controls (100% = plants have died)
How it was run: as §1

ALOMY [10] = experiment: Post-emergence action against ALOMY, 1.28 kg/ha; format: in vivo, Alopecurus myosuroides; conditions: dosage 1280 g/ha, visual rating about 3 weeks after treatment vs untreated controls
How it was run: (§2)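 Activity scored visually roughly 3 weeks after treatment against untreated plants (0% = as control, 100% = dead). Plants grown in sandy loam in greenhouse, treated at one-leaf stage, 2–3 weeks post-sowing, with WP/EC spray containing 0.5% additive at 600 l/ha.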

DIGSA [11] = experiment: Post-emergence action against DIGSA, 1.28 kg/ha; format: in vivo, Digitaria sanguinalis; conditions: dosage 1280 g/ha, visual rating about 3 weeks after treatment vs untreated controls
How it was run: as §2

ECHCG [12] = experiment: Post-emergence action against ECHCG, 1.28 kg/ha; format: in vivo, Echinochloa crus-galli; conditions: dosage 1280 g/ha, visual rating about 3 weeks after treatment vs untreated controls
Description: (§3) • a) Seeds of mono- and dicotyledonous weed plants are placed in plastic pots in sandy loam soil (twin sowing with one species each of mono- or dicotyledonous weed plants per pot), covered with soil and cultivated in a greenhouse under controlled growth conditions. 2 to 3 weeks after sowing, the test plants are treated at the one-leaf stage. The compounds of the invention, formulated in the form of wettable powders (WP) or as emulsion concentrates (EC), are applied to the green parts of the plants as aqueous suspension or emulsion with addition of 0.5% additive at a water application rate equivalent to 600 litres per hectare. After the test plants have been kept in the greenhouse under optimum growth conditions for about 3 weeks, the activity of the preparations is rated visually in comparison to untreated controls. For example, 100% activity=the plants have died, 0% activity=like control plants. As shown by the results, compounds of the general formula (I) of the invention, in post-emergence treatment, have very good herbicidal efficacy (90% to 100% herbicidal action) against harmful plants such as Abutilon theophrasti, Digitaria sanguinalis, Echinochloa crus-galli, Matricaria inodora, Poa annua, at an application rate of 1.28 kg of active substance per hectare.

LOLRI [13] = experiment: Post-emergence action against LOLRI, 1.28 kg/ha; format: in vivo, Lolium rigidum; conditions: dosage 1280 g/ha, visual rating about 3 weeks after treatment vs untreated controls
Description: as §3

POAAN [14] = experiment: Post-emergence action against POAAN, 1.28 kg/ha; format: in vivo, Poa annua; conditions: dosage 1280 g/ha, visual rating about 3 weeks after treatment vs untreated controls
How it was run: as §2

ABUTH = experiment: Post-emergence action against ABUTH, 1.28 kg/ha; format: in vivo, Abutilon theophrasti; conditions: dosage 1280 g/ha, visual rating about 3 weeks after treatment vs untreated controls (100% = plants died)
Description: as §3

AMARE [15] = experiment: Post-emergence action against AMARE, 1.28 kg/ha; format: in vivo, Amaranthus retroflexus; conditions: dosage 1280 g/ha, visual rating about 3 weeks after treatment vs untreated controls (100% = plants died)
How it was run: as §2

MATIN [16] = experiment: Post-emergence action against MATIN, 1.28 kg/ha; format: in vivo, Tripleurospermum inodorum (Matricaria inodora); conditions: dosage 1280 g/ha, visual rating about 3 weeks after treatment vs untreated controls (100% = plants died)
How it was run: as §2

STEME [17] = experiment: Post-emergence action against STEME, 1.28 kg/ha; format: in vivo, Stellaria media; conditions: dosage 1280 g/ha, visual rating about 3 weeks after treatment vs untreated controls (100% = plants died)
How it was run: as §2

VERPE [18] = experiment: Post-emergence action against VERPE, 1.28 kg/ha; format: in vivo, Veronica persica; conditions: dosage 1280 g/ha, visual rating about 3 weeks after treatment vs untreated controls (100% = plants died)
How it was run: as §2

ALOMY [19] = experiment: Pre-emergence action against ALOMY, 1280 g/ha; format: in vivo, Alopecurus myosuroides; conditions: visual scoring after about 3 weeks vs untreated controls, 100% = plants have died, 0% = like control plants
How it was run: as §1

SETVI [20] = experiment: Post-emergence action against SETVI, 1.28 kg/ha; format: in vivo, Setaria viridis; conditions: dosage 1280 g/ha, visual rating about 3 weeks after treatment vs untreated controls
Description: as §3

| Compound | Pre-emergence action against DIGSA (DIGSA [1]) [%] | Pre-emergence action against ECHCG (ECHCG [2]) [%] | Pre-emergence action against LOLRI (LOLRI [3]) [%] | Pre-emergence action against POAAN (POAAN [4]) [%] | Pre-emergence action against SETVI (SETVI [5]) [%] | Pre-emergence action against AMARE (AMARE [6]) [%] | Pre-emergence action against MATIN (MATIN [7]) [%] | Pre-emergence action against STEME (STEME [8]) [%] | Pre-emergence action against VERPE (VERPE [9]) [%] | Post-emergence action against ALOMY (ALOMY [10]) [%] | Post-emergence action against DIGSA (DIGSA [11]) [%] | Post-emergence action against ECHCG (ECHCG [12]) [%] | Post-emergence action against LOLRI (LOLRI [13]) [%] | Post-emergence action against POAAN (POAAN [14]) [%] | Post-emergence action against ABUTH (ABUTH) [%] | Post-emergence action against AMARE (AMARE [15]) [%] | Post-emergence action against MATIN (MATIN [16]) [%] | Post-emergence action against STEME (STEME [17]) [%] | Post-emergence action against VERPE (VERPE [18]) [%] | Post-emergence action against SETVI (SETVI [20]) [%] | further results |
| --- | --- | --- | --- | --- | --- | --- | --- | --- | --- | --- | --- | --- | --- | --- | --- | --- | --- | --- | --- | --- | --- |
| O=C(COc1nn(-c2ccccc2F)c(-c2ccc(F)nc2)c1C(F)(F)F)NS(=O)(=O)CC(F)(F)F [Example X-006] | 100 | 100 | 100 | 100 | 100 | 100 | 100 | 100 | 100 | 100 | 90 | 100 | 90 | 100 | 90 | 100 | 100 | 100 | 90 |  |  |
| O=C(COc1nn(-c2ccccc2F)c(-c2ccc(F)nc2)c1Br)NO [Example X-023] | 100 | 100 | 100 | 100 | 100 | 100 | 100 | 100 | 100 | 100 | 100 | 100 | 100 | 100 | 90 | 100 | 100 | 100 | 100 | 90 | Pre-emergence action against ALOMY (ALOMY [19]): 90% |
| O=C(O)CNC(=O)COc1nn(-c2ccccc2F)c(-c2ccc(F)nc2)c1C(F)(F)F [Example X-026] | 100 | 100 | 100 | 100 | 100 | 100 | 100 | 100 | 100 | 100 | 100 |  | 90 | 100 | 90 | 90 | 100 | 100 | 90 | 100 | Pre-emergence action against ALOMY (ALOMY [19]): 100% |
| O=C(COc1nn(-c2ccccc2F)c(-c2cncnc2)c1Br)OCc1ccccc1 [VI-002] |  | 100 | 100 | 100 | 100 | 100 | 90 | 100 | 90 |  |  | 100 | 100 | 100 | 90 | 90 | 100 | 90 | 90 | 90 |  |
| Cc1ccc(-n2nc(OCC(=O)O)c(Br)c2-c2ccc(F)nc2)cc1 [VII-067] | 100 | 100 | 100 | 100 | 100 | 100 | 100 | 100 | 100 |  | 100 | 100 | 100 | 100 |  | 100 | 90 |  |  |  | Pre-emergence action against ALOMY (ALOMY [19]): 100% |
| Cc1ccccc1-n1nc(OCC(=O)O)c(I)c1-c1ccc(F)nc1 [VII-097] | 100 | 100 | 100 | 100 | 100 | 100 | 90 | 100 | 100 | 100 | 100 | 100 | 90 | 100 |  |  | 90 | 90 | 100 | 90 |  |
| CCOC(=O)COc1nn(-c2ccccc2F)c(-c2ccc(F)nc2)c1C1CC1 [VII-119] | 100 | 100 | 100 | 100 | 100 | 100 | 100 | 100 | 100 | 100 | 100 | 100 | 100 | 100 | 90 | 100 | 100 | 100 | 100 | 100 | Pre-emergence action against ALOMY (ALOMY [19]): 100% |
| COC(=O)C(C)Oc1nn(-c2ccccc2)c(-c2ccnc(F)c2)c1Cl (stereo not drawn) [VIII-007] | 90 | 100 | 100 | 100 | 100 | 100 | 90 | 90 | 100 |  | 90 | 90 | 100 | 100 | 90 | 100 | 90 | 100 | 100 |  |  |
